The source of these data is the supplement of paper PMC9265050, “Inhibition of RNA Binding in SND1 Increases the Levels of miR-1-3p and Sensitizes Cancer Cells to Navitoclax” (Cancers, 2022).

For the assay, the system named is SW480. Description: drug sensitivity score (DSS, integrated dose-response area); higher = more sensitive (stronger viability reduction); extreme values may be limits of the assay. The essentials:
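SW480 cells stably carrying doxycycline-inducible control or SND1-targeting shRNA were treated with 0.1 µg/mL doxycycline for 7 days. Cells were then seeded at 1000 per well into 384-well plates containing 525 commercially available small-molecule inhibitors at five concentrations, and viability was measured with CellTiter-Glo after 72 h. The drug sensitivity score integrates the area under a fitted non-linear dose–response model.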

Setting [1] is: shRNA: SND1 shRNA1 (SND1 silenced).
The mark [2] stands for this setting: shRNA: SND1 shRNA2 (SND1 silenced).
[3] abbreviates: shRNA: control shRNA (non-targeting).

Turning to `O=C(Nc1nc2cccc(-c3ccc(CN4CCS(=O)(=O)CC4)cc3)n2n1)C1CC1` [Filgotinib], the drug sensitivity score reads like this: under setting [1], 1.5 DSS; under setting [2], 0 DSS; under setting [3], 3.6 DSS.
Molecule `CC(C)(C)NC(=O)[C@H]1CC[C@H]2[C@@H]3CC[C@H]4NC(=O)C=C[C@]4(C)[C@H]3CC[C@]12C` [Finasteride] showed a drug sensitivity score under setting [1] of 0 DSS, a drug sensitivity score under setting [2] of 0 DSS and a drug sensitivity score under setting [3] of 0.4 DSS.
Take `CCCCCCCCc1ccc(CCC(N)(CO)CO)cc1` [Fingolimod]: the drug sensitivity score under setting [1] was 8.5 DSS, the drug sensitivity score under setting [2] was 8.9 DSS and the drug sensitivity score under setting [3] turned out to be 6.6 DSS.
`O=c1[nH]c(=O)n([C@H]2C[C@H](O)[C@@H](CO)O2)cc1F` [Floxuridine]: the drug sensitivity score came to 12.8 DSS under setting [1], 3 DSS under setting [2] and 4.3 DSS under setting [3].
As to `Nc1nc(F)nc2c1ncn2[C@@H]1O[C@H](CO)[C@@H](O)[C@@H]1O` [Fludarabine], the drug sensitivity score is, setting by setting: under setting [1], 1.8 DSS; under setting [2], 3.3 DSS; under setting [3], 4.7 DSS.
In the case of `O=c1[nH]cc(F)c(=O)[nH]1` [Fluorouracil], the drug sensitivity score runs as follows: under setting [1], 0.5 DSS; under setting [2], 0 DSS; under setting [3], 1.1 DSS.
Take `CC(C)C(=O)Nc1ccc([N+](=O)[O-])c(C(F)(F)F)c1` [Flutamide]: the drug sensitivity score reads like this: under setting [1], 0 DSS; under setting [2], 0 DSS; under setting [3], 0 DSS.
Regarding `COc1cc2c(Oc3ccc(NC(=O)C4(C(=O)Nc5ccc(F)cc5)CC4)cc3F)ccnc2cc1OCCCN1CCOCC1` [Foretinib], the drug sensitivity score reads like this: under setting [1], 4.1 DSS; under setting [2], 4.2 DSS; under setting [3], 5 DSS.
`COc1cc(Nc2ncc(F)c(Nc3ccc4c(n3)N(COP(=O)(O)O)C(=O)C(C)(C)O4)n2)cc(OC)c1OC` [Fostamatinib] had a drug sensitivity score under setting [1] of 3.4 DSS and a drug sensitivity score under setting [3] of 2.6 DSS.
For the molecule `C[C@]12CC[C@@H]3c4ccc(O)cc4C[C@@H](CCCCCCCCC[S+]([O-])CCCC(F)(F)C(F)(F)F)[C@H]3[C@@H]1CC[C@@H]2O` (some centres undefined) [Fulvestrant], the drug sensitivity score by setting is: under setting [1], 0 DSS; under setting [2], 0 DSS; under setting [3], 1.3 DSS.
For `O=C(NOCCO)c1ccc2cncn2c1Nc1ccc(I)cc1F` [GDC-0623], the drug sensitivity score reads like this: under setting [1], 13.9 DSS; under setting [2], 7.6 DSS; under setting [3], 7.4 DSS.
For `Cn1nccc1Nc1nccc(-c2ccn([C@H](CO)c3ccc(Cl)c(F)c3)c(=O)c2)n1` [GDC-0994], the drug sensitivity score by setting is: under setting [1], 5.9 DSS; under setting [2], 0.2 DSS; under setting [3], 5.2 DSS.
On to `CNc1nc(Nc2cn(C(C)(C)C#N)nc2C)ncc1C(F)(F)F` [GNE-0877], for which the drug sensitivity score was determined as 1.6 DSS under setting [1], 0 DSS under setting [2] and 5.8 DSS under setting [3].
For `CCNc1nc(Nc2cc(F)c(C(=O)N3CCOCC3)cc2OC)ncc1C(F)(F)F` [GNE-7915], the drug sensitivity score under setting [1] was 0 DSS, the drug sensitivity score under setting [2] amounted to 0 DSS and the drug sensitivity score under setting [3] worked out at 1.4 DSS.
`CCCc1cc(C)[nH]c(=O)c1CNC(=O)c1cc(-c2ccnc(N3CCN(C)CC3)c2)cc2c1cnn2C(C)C` [GSK343]: the drug sensitivity score is, setting by setting: under setting [1], 0 DSS; under setting [2], 0 DSS; under setting [3], 4.5 DSS.
`CCCOc1ccn2c(C(C)=O)cc(-c3ccccc3S(C)(=O)=O)c2c1` [GSK2801]: the drug sensitivity score by setting is: under setting [1], 0 DSS; under setting [2], 0 DSS; under setting [3], 0 DSS.
For the molecule `CCOC(=O)CCNc1cc(N2CCc3ccccc3CC2)nc(-c2ccccn2)n1` [GSK-J4], the drug sensitivity score is, setting by setting: under setting [1], 14 DSS; under setting [2], 14.7 DSS; under setting [3], 12.3 DSS.
In the case of `C[C@@H]1C=C2C(=O)O[C@@H]3CC[C@H](C1)[C@]23O` [Galiellalactone], the drug sensitivity score is, setting by setting: under setting [1], 3.8 DSS; under setting [2], 4.2 DSS; under setting [3], 3.4 DSS.
In the case of `Cc1cccc(-c2nn3c(c2-c2ccnc4ccc(C(N)=O)cc24)CCC3)n1` [Galunisertib], the drug sensitivity score is, setting by setting: under setting [1], 0 DSS; under setting [2], 0 DSS; under setting [3], 0 DSS.
On to `Cc1cc(Nc2cc(CN3CCOCC3)c3nc(C)c(Cc4ccc(Cl)cc4F)n3n2)n[nH]1` [Gandotinib], for which the drug sensitivity score reads like this: under setting [1], 6.9 DSS; under setting [2], 4.1 DSS; under setting [3], 7 DSS.
`CC(C)c1cc(-c2n[nH]c(=O)n2-c2ccc3c(ccn3C)c2)c(O)cc1O` [Ganetespib] returned a drug sensitivity score under setting [1] of 12.7 DSS, a drug sensitivity score under setting [2] of 12.5 DSS and a drug sensitivity score under setting [3] of 13.9 DSS.
For `CN(C)C1CCN(C(=O)c2ccc(NC(=O)Nc3ccc(-c4nc(N5CCOCC5)nc(N5CCOCC5)n4)cc3)cc2)CC1` [Gedatolisib] the same measures were 4.2 DSS, 9.6 DSS and 10.3 DSS.
For the molecule `COc1cc2ncnc(Nc3ccc(F)c(Cl)c3)c2cc1OCCCN1CCOCC1` [Gefitinib], the drug sensitivity score under setting [1] came out at 3.6 DSS, the drug sensitivity score under setting [2] stood at 6.6 DSS and the drug sensitivity score under setting [3] came to 3.7 DSS.
The matching figures for `Nc1ccn([C@@H]2O[C@H](CO)[C@@H](O)C2(F)F)c(=O)n1` [Gemcitabine]: 15.8 DSS, 6.1 DSS and 13.4 DSS.
For `CCN(CC)Cc1ccc2cc(COC(=O)Nc3ccc(C(=O)NO)cc3)ccc2c1` [Givinostat] the same measures were 6.6 DSS, 7.3 DSS and 6.7 DSS.
The matching figures for `CN1CC[C@@H](NC(=O)Nc2ccc(C#N)cc2)C[C@@H]1c1nc2ccccc2[nH]1` [Glasdegib]: 0 DSS, 0 DSS and 5.6 DSS.
Turning to `CN1CCN(C2CCN(C(=O)Nc3cc(Oc4ccc(NC(=O)C5(C(=O)Nc6ccc(F)cc6)CC5)c(F)c4)ccn3)CC2)CC1` [Golvatinib], the drug sensitivity score reads like this: under setting [1], 0 DSS; under setting [2], 2.2 DSS; under setting [3], 0 DSS.
Take `CC(C)C[C@H](NC(=O)[C@@H](COC(C)(C)C)NC(=O)[C@H](Cc1ccc(O)cc1)NC(=O)[C@H](CO)NC(=O)[C@H](Cc1c[nH]c2ccccc12)NC(=O)[C@H](Cc1cnc[nH]1)NC(=O)[C@@H]1CCC(=O)N1)C(=O)N[C@@H](CCCNC(=N)N)C(=O)N1CCC[C@H]1C(=O)NNC(N)=O` [Goserelin]: the drug sensitivity score reads like this: under setting [1], 0 DSS; under setting [2], 0 DSS; under setting [3], 0 DSS.
On to `O=S(=O)(c1cccc2c(O)nccc12)N1CCCNCC1` [Hydroxyfasudil], for which the drug sensitivity score came to 1.6 DSS under setting [1] and 3.5 DSS under setting [3].
Turning to `NC(=O)NO` [Hydroxyurea], the drug sensitivity score under setting [1] was 0 DSS, the drug sensitivity score under setting [2] is 0 DSS and the drug sensitivity score under setting [3] is 0.2 DSS.
With `COc1cc2c(cc1-c1c(C)noc1C)ncc1[nH]c(=O)n([C@H](C)c3ccccn3)c12` [I-BET151], the drug sensitivity score under setting [1] was determined as 1.4 DSS, the drug sensitivity score under setting [2] is 0.5 DSS and the drug sensitivity score under setting [3] came to 2.4 DSS.
Turning to `O=C(O)c1ccc(O)c2ncccc12` [IOX-1], the drug sensitivity score reads like this: under setting [1], 1.7 DSS; under setting [2], 1.1 DSS; under setting [3], 0.7 DSS.
The molecule `O=C(O)CNC(=O)c1c(O)c2ccccc2n(Cc2ccccc2)c1=O` [IOX-2] came in with a drug sensitivity score under setting [1] of 5 DSS, a drug sensitivity score under setting [2] of 2.3 DSS and a drug sensitivity score under setting [3] of 6.2 DSS.
In the case of `C=CC(=O)N1CCC[C@@H](n2nc(-c3ccc(Oc4ccccc4)cc3)c3c(N)ncnc32)C1` [Ibrutinib], the drug sensitivity score is, setting by setting: under setting [1], 0 DSS; under setting [2], 0.6 DSS; under setting [3], 0 DSS.
`C#Cc1cccc(Nc2ncnc3cc4c(cc23)OCCOCCOCCO4)c1` [Icotinib]: the drug sensitivity score came out at 1.1 DSS under setting [1], 3.8 DSS under setting [2] and 1.1 DSS under setting [3].
Regarding `CC(=O)[C@]1(O)Cc2c(O)c3c(c(O)c2[C@@H](O[C@H]2C[C@H](N)[C@H](O)[C@H](C)O2)C1)C(=O)c1ccccc1C3=O` [Idarubicin], the drug sensitivity score turned out to be 11.6 DSS under setting [1], 9 DSS under setting [2] and 9.4 DSS under setting [3].
The matching figures for `COc1cc(C(=O)O)ccc1NC(=O)[C@@H]1N[C@@H](CC(C)(C)C)[C@](C#N)(c2ccc(Cl)cc2F)[C@H]1c1cccc(Cl)c1F` [Idasanutlin]: 0 DSS, 0.3 DSS and 0.9 DSS.
`CC[C@H](Nc1ncnc2[nH]cnc12)c1nc2cccc(F)c2c(=O)n1-c1ccccc1` [Idelalisib]: the drug sensitivity score is 2.3 DSS under setting [1], 4.6 DSS under setting [2] and 0.7 DSS under setting [3].
Take `O=P1(NCCCl)OCCCN1CCCl` (centres undefined) [Ifosfamide]: the drug sensitivity score was 0 DSS under setting [1], 0 DSS under setting [2] and 0 DSS under setting [3].
In the case of `Cc1ccc(NC(=O)c2ccc(CN3CCN(C)CC3)cc2)cc1Nc1nccc(-c2cccnc2)n1` [Imatinib], the drug sensitivity score runs as follows: under setting [1], 0.7 DSS; under setting [2], 1.4 DSS; under setting [3], 2.5 DSS.
For `CC(C)Cn1cnc2c(N)nc3ccccc3c21` [Imiquimod] the same measures were 0.9 DSS, 0.1 DSS and 3.5 DSS.
As for `O=C(Nc1ccncc1)C(=O)c1cn(Cc2ccc(Cl)cc2)c2ccccc12` [Indibulin], the drug sensitivity score reads like this: under setting [1], 8.8 DSS; under setting [2], 7.7 DSS; under setting [3], 8.8 DSS.
